Measured values from article PMC5308383 (2016).

Tests used:
[1] = tested on: CBSA-5335 (fluorophore/quencher-modified) (DNA, aptamer, C3 spacer abasic at 10 of strand 2) CTCCTTCAACGAAGTGGGTCTCCTTCAACGAAGTGGGTCTC/GAGACAAGGNGACAAGGAGT; test: fluorophore/quencher assembly assay; details: 100 μM MgCl2
[2] = tested on: CBSA-5325 (DNA, aptamer, C3 spacer abasic at 10 of strand 2) CTCCTTCAACGAAGTGGGTTCCTTCAACGAAGTGGGTCTC/GAGACAAGGNACAAGGAG; test: ATMND quenching assembly assay; details: 100 μM MgCl2; 10 mM Tris-HCl, pH 7.4; 1 μM each strand; 200 nM ATMND; 250 μM cocaine, 72% quenching
[3] = tested on: CBSA-5335-GT (fluorophore/quencher-modified) (DNA, aptamer, C3 spacer abasic at 10 of strand 2) CTCCTTCAATGAAGTGGGTCTCCTTCAACGAAGTGGGTCTC/GAGACAAGGNGACAAGGAGT; test: fluorophore/quencher assembly titration, Hill fit; details: 100 μM MgCl2; 10 mM Tris-HCl, pH 7.4, room temperature; 1 μM each strand; nH 1.5; apparent
[4] = tested on: PSA (DNA, aptamer, C3 spacer abasic at 3 of strand 2) CTCCTTCAACGAAGTGGGTTCC/GGNACAAGGAG; test: ITC, single-site fit; details: 100 μM MgCl2; 10 mM Tris-HCl, pH 7.4, 20 °C
[5] = tested on: 38-GC-20A (DNA, aptamer) GGGAGACAAGGAAAATCCTACAACGAAGTGGGTCTCCC; test: ITC; details: 20 μM aptamer, 500 μM cocaine titrant
[6] = tested on: 38-GC-22T (DNA, aptamer) GGGAGACAAGGAAAATCCTTCTACGAAGTGGGTCTCCC; test: ITC; details: 20 μM aptamer, 500 μM cocaine titrant
[7] = tested on: CBSA-5435 (DNA, aptamer, C3 spacer abasic at 11 of strand 2) CTCCTTCAACGAAGTGGGTCTTCCTTCAACGAAGTGGGTCTC/GAGACAAGGANGACAAGGAG; test: ATMND quenching assembly assay; details: 100 μM MgCl2
[8] = tested on: 38-GC-20C (DNA, aptamer) GGGAGACAAGGAAAATCCTCCAACGAAGTGGGTCTCCC; test: ITC; details: 20 μM aptamer, 500 μM cocaine titrant
[9] = tested on: 38-GC-22G (DNA, aptamer) GGGAGACAAGGAAAATCCTTCGACGAAGTGGGTCTCCC; test: ITC; details: 20 μM aptamer, 500 μM cocaine titrant
[10] = tested on: LSA (DNA, aptamer, C3 spacer abasic at 10 of strand 2) CTCCTTCAACGAAGTGGGTTCCTTGTCTC/GAGACAAGGNACAAGGAG; test: ATMND quenching assembly assay; details: 100 μM MgCl2; 10 mM Tris-HCl, pH 7.4; 1 μM each strand; 250 μM cocaine, additional 10% change; mostly pre-assembled
[11] = tested on: CBSA-5325 (fluorophore/quencher-modified) (DNA, aptamer, C3 spacer abasic at 10 of strand 2) CTCCTTCAACGAAGTGGGTTCCTTCAACGAAGTGGGTCTC/GAGACAAGGNACAAGGAGT; test: fluorophore/quencher assembly titration, Hill fit; details: 100 μM MgCl2; 10 mM Tris-HCl, pH 7.4, room temperature; 1 μM each strand; nH 1.1; apparent
[12] = tested on: CBSA-M1 (DNA, aptamer, C3 spacer abasic at 10 of strand 2) CTCCTTCAACGAAGTGGGTTCCTTCGACGAAGTGGGTCTC/GAGACAAGGNACAAGGAG; test: ATMND quenching assembly assay; details: 100 μM MgCl2; 10 mM Tris-HCl, pH 7.4; 1 μM each strand; 200 nM ATMND; cocaine tested at 250 μM
[13] = tested on: 38-GC (DNA, aptamer) GGGAGACAAGGAAAATCCTTCAACGAAGTGGGTCTCCC; test: ITC; details: 20 μM aptamer, 500 μM cocaine titrant
[14] = tested on: 38-GC-21T (DNA, aptamer) GGGAGACAAGGAAAATCCTTTAACGAAGTGGGTCTCCC; test: ITC; details: 20 μM aptamer, 500 μM cocaine titrant
[15] = tested on: CBSA-5335 (fluorophore/quencher-modified) (DNA, aptamer, C3 spacer abasic at 10 of strand 2) CTCCTTCAACGAAGTGGGTCTCCTTCAACGAAGTGGGTCTC/GAGACAAGGNGACAAGGAGT; test: fluorophore/quencher assembly titration, Hill fit; details: 100 μM MgCl2; 10 mM Tris-HCl, pH 7.4, room temperature; 1 μM each strand; nH 1.5; apparent; b21 prints 33 μM
[16] = tested on: CBSA-M2 (DNA, aptamer, C3 spacer abasic at 10 of strand 2) CTCCTTCGACGAAGTGGGTTCCTTCAACGAAGTGGGTCTC/GAGACAAGGNACAAGGAG; test: ATMND quenching assembly assay; details: 100 μM MgCl2; 10 mM Tris-HCl, pH 7.4; 1 μM each strand; 200 nM ATMND; cocaine tested at 250 μM
[17] = tested on: CBSA-5445 (DNA, aptamer, C3 spacer abasic at 11 of strand 2) CTCCTTCAACGAAGTGGGTTCTTCCTTCAACGAAGTGGGTCTC/GAGACAAGGANGAACAAGGAG; test: ATMND quenching assembly assay; details: 100 μM MgCl2
[18] = tested on: CBSA-5325 (DNA, aptamer, C3 spacer abasic at 10 of strand 2) CTCCTTCAACGAAGTGGGTTCCTTCAACGAAGTGGGTCTC/GAGACAAGGNACAAGGAG; test: fluorescence quenching titration, Scatchard; details: 100 μM MgCl2; 10 mM Tris-HCl, pH 7.4; 200 nM ATMND; 1 mM cocaine present (cocaine-assembled aptamer)
[19] = tested on: LSA (DNA, aptamer, C3 spacer abasic at 10 of strand 2) CTCCTTCAACGAAGTGGGTTCCTTGTCTC/GAGACAAGGNACAAGGAG; test: fluorescence quenching; details: 100 μM MgCl2; 10 mM Tris-HCl, pH 7.4; 1 μM each strand; 200 nM ATMND; no cocaine; 75% quenching

CCOC(=O)[C@H]1[C@@H](OC(=O)c2ccccc2)C[C@@H]2CC[C@H]1N2C
binding ([1]; 10% saliva, room temperature, 19% cross-reactivity at 50 μM, 3% at 5 μM): weak

CN1[C@H]2CC[C@@H]1[C@@H](C(=O)O)[C@@H](OC(=O)c1ccccc1)C2
binding [1]: no

COC(=O)C1=CC[C@@H]2CC[C@H]1N2C
binding [1]: no

COC(=O)[C@H]1[C@@H](OC(=O)c2ccccc2)C[C@@H]2CC[C@H]1N2C
binding [2]: yes
K 1/2 [3]: 125 µM
KD [4]: 2000 µM
KD [5]: 169 µM
KD [6]: 169 µM
binding [7]: yes
KD [8]: 714 µM
binding [9]: no
binding [10]: weak
K 1/2 [11]: 106 µM
binding [12]: no
KD [13]: 2.60 µM
KD [14]: 49.3 µM
K 1/2 [15]: 36 µM
binding [16]: no
binding [17]: yes

CN1CCC[C@H]1c1cccnc1
binding ([1]; 10% saliva, 10 mM Tris-HCl, pH 7.4, room temperature, tested at 50 μM): no

Cc1nc2nc(N)ccc2c(C)c1C
KD [18]: 0.365 µM
binding [19]: yes
